# Measured values as given in paper PMC9882606, “Rationally designed inhibitors of the Musashi protein-RNA interaction by hotspot mimicry” (Research Square, 2023).
# Key:
# [1] = system: EGFR, SMAD3, and MSI2 protein levels; assay: Immunoblot of MSI2 downstream targets in PC9 cells; type: cell-based, human; conditions: PC9, 5 μM or 20 μM, 48 hours
# Protocol: Figure 7: Cellular characterization of MSI2 inhibition by R12–8–44–3. (A) Quantification of mRNA immunoprecipitation (RIP) results. Cells were treated with 10 μM of the indicated compounds for 8 hours. After immunoprecipitation with anti-MSI2, mRNA targets were quantified. The amount of each target mRNA in the pulldown was calculated relative to the input, and results from all targets were normalized to PTP4A1. Treating cells with R12–8–44–3 disrupted the interaction with all four cognate mRNAs (PTP4A, SMAD3, EGFR, and MSI2). Data are presented as the average ± S.E.M. from at least 3 independent replicates. […] Cells were treated with indicated compounds at two concentrations (5 μM and 20 μM) for 48 hours, then protein levels of relevant MSI2 targets were determined (EGFR, SMAD3, and MSI2). One representative image is shown; quantification is presented as the average ± S.E.M. from at least 3 independent replicates, normalized first to beta-actin and then to DMSO-treated cells. (C) Cell viability dose-response quantified by CellTiter-Blue after 3 days (left) and cell proliferation with 10μM of compounds quantified by clonogenic assay after 7 days (right). […] (D) Cell viability quantified by clonogenic assay of PC9 cell line after 7-day treatment with 2 nM osimertinib (osi alone), osimertinib with 10 μM R12–8–44–3, or osimertinib with 10 μM R12-neg. […]
# MSI1 RRM1 = target: T1, MSI1 RRM1 (Homo sapiens, UniProt O43347); assay: Fluorescence polarization (FP) competition assay with fluorescein-labeled RNA; type: binding; conditions: MSI1 RRM1
# T1 sequence (O43347 20-110 limits assumed): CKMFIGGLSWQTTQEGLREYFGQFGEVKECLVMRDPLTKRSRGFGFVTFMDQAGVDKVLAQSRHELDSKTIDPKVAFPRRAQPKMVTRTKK
# From the text: Figure 1: The hotspot mimicry approach. […] (A) The structure of the MSI1 / RNA complex. The RNA (sticks) wraps around the protein (spheres). Two adjacent bases, A106 and G107 (magenta), are buried in a shallow pocket on the protein surface. (B) An interaction map is generated from the RNA in the complex, by collecting deeply buried bases (magenta) and atoms involved in intermolecular hydrogen bonds (acceptors shown in yellow, donors in green). […] Positive values indicate diminished binding when a given base is replaced with an abasic site, showing that A106 and G107 contribute more than the other nearby bases to the binding affinity of this interaction. (E) The hotspot pharmacophore serves as a template for ligand-based screening, searching for compounds that would mimic the three-dimensional features of the pharmacophore. The screen led to the identification of compound R12, which mimics the geometry of the rings and provides three of the four desired hydrogen bonding groups. (F) R12 competes with fluorescein-labeled RNA for MSI1 binding, as observed through a fluorescence polarization assay. […] (G) Superposition of the hotspot pharmacophore back onto the protein structure illustrates the interactions that should be captured by an ideal ligand: stacking against three aromatic sidechains, and four intermolecular hydrogen bonds.
# We applied our “hotspot mimicry” approach to the structure of Musashi-1 RRM1 bound to cognate RNA [54], and found a single hotspot pharmacophore derived from an adjacent pair of buried bases, Adenine106 and Guanine107 (Figure 1a). […] This pharmacophore captures both the aromatic stacking and the hydrogen bonding of the RNA hotspot through its inclusion of ring moieties and donor/acceptor positions, respectively (Figure 1c). To test whether these two particular bases indeed serve as a hotspot of the MSI1 RRM1 / RNA interaction, we used a fluorescence polarization (FP) competition assay (see Supporting Methods) to measure the binding affinity of RNA variants that maintained the backbone but lacked individual bases. […] In contrast, introduction of an abasic site at other nearby positions affected binding much less. Confirmation that A106 and G107 serve as hotspot bases of this interaction thus provided experimental evidence supporting the pharmacophore selection from our computational approach.
# MSI2 = assay: Immunoblot of cellular MSI2 protein levels in PC9 cells; type: cell-based, human; conditions: PC9, 20 μM compound for 1, 3, 6, 24, or 48 hours
# From the text: To explore the effect of these MSI2 inhibitors in a cancer-relevant cellular context, we selected two MSI2-dependent cancer cell lines: non-small cell lung cancer cell line PC9 and leukemia cell line K562 [73, 98–101]. Upon treatment of PC9 cells with Ro, R12–8–44–3, or negative control R12-neg, we found at multiple time points that cellular MSI2 protein levels were unchanged (Figure 6a). To confirm target engagement, we therefore adapted the cellular thermal shift assay (CETSA). To determine experimental conditions, we first harvested cells and incubated at increasing temperatures; we then removed aggregated protein by centrifugation and used Western blotting to probe the amount of MSI2 remaining in the soluble fraction (Figure 6b, Figure S9). Having established 49 °C as the midpoint of the transition under these (non-equilibrium) conditions, we then treated cells with our candidate MSI2 inhibitor for 3 h, and heated to 49 °C.
# Figure 6: Direct cellular engagement of MSI2 interaction by R12–44–3. (A) Immunoblot from PC9 cells treated with Ro (positive control), R12-neg (negative control), or R12–8–44–3. Cells were treated with 20 μM compound for 1, 3, 6, 24, or 48 hours. MSI2 protein abundance was then quantified and normalized to untreated sample. One representative image is shown; quantification is presented as the average ± S.E.M. from 3 independent replicates. (B) Thermal-induced aggregation of cellular MSI2 in the PC9 cell line. Cells were briefly incubated at temperatures between 40 °C to 67 °C, then centrifuged and the amount of MSI2 remaining in the soluble fraction was quantified by Western blotting. […] One representative image is shown; quantification is presented as the average ± S.E.M. from 3 independent replicates, normalized first to beta-actin and then to DMSO control. […] One representative image is shown; quantification is presented as the average ± S.E.M. from 3 independent replicates, normalized first to beta-actin and then to DMSO control. […]
smiles,measurement,setting,value
Cc1cc(C(=O)OCc2nc(N)c3c(C)c(C)sc3n2)c(N)cc1F [R12–8–44–3],SMAD3 and EGFR protein levels,[1],phenocopied the effect of MSI2 depletion on these two targets
same,amount of MSI2 protein,[1],without changing the amount of MSI2
same,improvement in potency over parent compound,MSI1 RRM1; FP assay,2 fold
same,IC50,MSI1 RRM1; FP competition,9.7 µM
same,cellular MSI2 protein levels,MSI2,unchanged
